According to patent publication US5998654A, “Retinoic acid receptor antagonist compounds and methods” (Ligand Pharmaceuticals Incorporated, priority 1997, dated 1999):

How the values were obtained:
RARγ = molecular target: T1, RARγ (Homo sapiens, UniProt P13631); experiment: co-transfection assay, antagonist activity on RARγ; type: cell-based; parameters: expressed in transfected cells; host or cells: CV-1 cells (African green monkey kidney); conditions: CV-1 cells, in presence of known RAR agonist TTNPB; for IC50: read-out: IC50 antagonist potency, RARγ
T1 sequence (P13631 1-454): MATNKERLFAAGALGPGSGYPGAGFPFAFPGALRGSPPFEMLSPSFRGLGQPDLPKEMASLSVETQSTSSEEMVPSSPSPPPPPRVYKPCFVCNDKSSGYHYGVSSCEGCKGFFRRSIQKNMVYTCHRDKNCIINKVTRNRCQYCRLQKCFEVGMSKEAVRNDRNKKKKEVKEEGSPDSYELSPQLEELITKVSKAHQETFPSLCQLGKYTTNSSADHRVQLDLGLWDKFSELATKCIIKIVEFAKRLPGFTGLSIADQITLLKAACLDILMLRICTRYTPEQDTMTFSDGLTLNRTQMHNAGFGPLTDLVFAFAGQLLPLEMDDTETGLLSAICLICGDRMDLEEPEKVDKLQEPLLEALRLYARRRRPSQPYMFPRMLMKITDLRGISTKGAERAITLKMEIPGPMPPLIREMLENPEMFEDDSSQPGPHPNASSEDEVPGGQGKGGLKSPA
Description: (§1) This assay is described in further detail in U.S. Pat. Nos. 4,981,784 and 5,071,773, the disclosures of which are incorporated herein by reference.
(§2) In the co-transfection assay, a cloned cDNA for an IR (e.g., human RARα:, RARβ, RXRγ) under the control of a constitutive promoter (e.g., the SV 40 promoter) is introduced by transfection (a procedure to induce cells to take up foreign genes) into a background cell substantially devoid of endogenous IRs. This introduced gene directs the recipient cells to make the IR protein of interest. A second gene is also introduced (co-transfected) into the same cells in conjunction with the IR gene. This second gene, comprising the cDNA for a reporter protein, such as firefly luciferase (LUC), is controlled by an appropriate hormone responsive promoter containing a hormone response element (HRE). This reporter plasmid functions as a reporter for the transcription-modulating activity of the target IR. Thus, the reporter acts as a surrogate for the products (mRNA then protein) normally expressed by a gene under control of the target receptor and its native hormone.
(§3) The co-transfection assay can detect small molecule agonists or antagonists of target IRs. Exposing the transfected cells to an agonist ligand compound increases reporter activity in the transfected cells. This activity can be conveniently measured, e.g., by increasing luciferase production, which reflects compound-dependent, IR-mediated increases in reporter transcription. To detect antagonists, the co-transfection assay is carried out in the presence of a constant concentration of an agonist to the target IR (e.g., all-trans retinoic acid for RARα) known to induce a defined reporter signal. Increasing concentrations of a suspected antagonist will decrease the reporter signal (e.g., luciferase production). The co-transfection assay is therefore useful to detect both agonists and antagonists of specific IRs. Furthermore, it determines not only whether a compound interacts with a particular IR, but whether this interaction mimics (agonizes) or blocks (antagonizes) the effects of the native regulatory molecules on target gene expression, as well as the specificity and strength of this interaction.
CV-1 cells (African green monkey kidney fibroblasts) were cultured in the presence of Dulbecco's Modified Eagle Medium (DMEM) supplemented with 10% charcoal resin-stripped fetal bovine serum then transferred to 96-well microtiter plates one day prior to transfection.
To determine RAR and/or RXR agonist activity of the compounds of the present invention, the CV-1 cells were transiently transfected by calcium phosphate coprecipitation according to the procedure of Berger et al., 41 J. Steroid Biochem. Mol. Biol., 733 (1992) with the following receptor expressing plasmids: pRShRARα: Giguere et al., 330 Nature, 624 (1987); pRShRARβ and pRShRARγ, Ishikawa et al., 4 Mol. Endocrin., 837 (1990); pRShRXRα, Mangelsdorf et al., 345 Nature, 224 (1990); and pRSmRXRβ and pRSmRXRγ, Mangelsdorf et al., 6 Genes & Devel., 329 (1992), the disclosures of which are herein incorporated by reference. Each of these receptor expressing plasmids was co-transfected at a concentration of 5 ng/well, along with a basal reporter plasmid at 100 ng/well, the internal control plasmid pRS-β-Gal at 50 ng/well and filler DNA, pGEM at 45 ng/well.
The basal reporter plasmid D-MTV-LUC (Hollenberg and Evans, 55 Cell, 899 (1988), the disclosure of which is herein incorporated by reference) containing two copies of the TRE-palindromic response element described in Umesono et al., 336 Nature, 262 (1988), the disclosure of which is herein incorporated by reference, was used in transfections for the RARs, and the reporter plasmid CRBPIIFKLUC, which contains an RXRE (retinoid X receptor response element, as described in Mangelsdorf et al., 66 Cell, 555 (1991), the disclosure of which is herein incorporated by reference), was used in transfections for the RXRs.

RARα = molecular target: T2, RARα (Homo sapiens, UniProt P10276); experiment: co-transfection assay, agonist activity on RARα; type: cell-based; parameters: expressed in transfected cells; host or cells: CV-1 cells (African green monkey kidney); conditions: CV-1 cells; read-out: EC50 agonist potency, RARα
T2 sequence (P10276 1-462): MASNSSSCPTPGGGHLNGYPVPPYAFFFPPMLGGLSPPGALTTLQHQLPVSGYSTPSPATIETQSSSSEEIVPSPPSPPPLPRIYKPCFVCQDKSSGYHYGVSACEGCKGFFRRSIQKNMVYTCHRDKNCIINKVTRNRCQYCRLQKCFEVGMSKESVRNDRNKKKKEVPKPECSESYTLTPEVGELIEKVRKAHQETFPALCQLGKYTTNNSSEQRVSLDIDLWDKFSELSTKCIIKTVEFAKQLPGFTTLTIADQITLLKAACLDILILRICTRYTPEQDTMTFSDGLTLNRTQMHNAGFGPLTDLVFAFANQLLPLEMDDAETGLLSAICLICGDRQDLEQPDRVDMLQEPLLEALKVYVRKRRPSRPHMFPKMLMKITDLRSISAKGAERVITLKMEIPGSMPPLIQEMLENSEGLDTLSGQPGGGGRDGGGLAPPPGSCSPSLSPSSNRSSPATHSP
Description: as §1, §2, §3
CV-1 cells (African green monkey kidney fibroblasts) were cultured in the presence of Dulbecco's Modified Eagle Medium (DMEM) supplemented with 10% charcoal resin-stripped fetal bovine serum then transferred to 96-well microtiter plates one day prior to transfection. […]

Compound	efficacy of antagonist, % of maximal inhibition, RARγ (in parentheses after IC50) (RARγ) [%]	IC50 (RARγ) [nM]	EC50 (RARα) [nM]
CCCOc1c(C(C)(C)C)cc(/C(C)=C/C=C/C(C)=C/C(=O)O)cc1C(C)(C)C [Compound 8, 2E, 4E, 6E-[7-(3,5-Di-t-butyl-4-n-propoxyphenyl)-3-methyl]-octa-2,4,6-trienoic acid]	85	3	> 10000
C=C(c1ccccc1)c1cc(/C(C)=C/C=C/C(C)=C/C(=O)O)cc(C(C)(C)C)c1 [Compound 17, (2E,4E,6E)-7-[3-t-butyl-5-(1-phenyl-vinyl)-phenyl]-3-methyl-octa-2,4,6-trienoic acid]	85	2	> 10000
CCCCCOc1c(C(C)(C)C)cc(/C(C)=C/C=C/C(C)=C/C(=O)O)cc1C(C)(C)C [Compound 9, 2E, 4E, 6E-[7-(3,5-Di-t-butyl-4-n-pentoxyphenyl)-3-methyl]-octa-2,4,6-trienoic acid]	80	5	> 10000
CCCCOc1c(C(C)(C)C)cc(/C(C)=C/C=C/C(C)=C/C(=O)O)cc1C(C)(C)C [Compound 7, 2E, 4E, 6E-[7-(3,5-Di-t-butyl-4-n-butoxyphenyl)-3-methyl]-octa-2,4,6-trienoic acid]	91	2	> 10000
